The record followed here is patent publication US4572911A, “Hexahydroindolinzine compounds, pharmaceutical compositions and methods and intermediates” (priority 1984, dated 1986).

One assay has as its system gastric acid secretion. Description: Acute Gastric Fistula Rat Test (inhibition of gastric acid secretion, Total Acid Output). In kind it is in vivo, Female Sprague-Dawley rats. The conditions noted are these: 1 h, @ 20 mg/kg i.d. (intraduodenal), collection at one hour, read-out: % Inhibition of TAO (Total Acid Output). Here is the method: The compounds of the invention are useful for inhibition of gastric acid secretion as measured by the following test. Female Sprague-Dawley rats are fasted twenty-four hours before testing and are given water ad libidum while being kept in individual cages. On the day of testing, the rats are weighed and are selected so that the rats in each test weigh within a range of ±20 grams.
Surgery is carried out under light ether anesthesia. As soon as the rat is anesthetized its teeth are removed and a mid-line incision is made on the abdomen about 11/2 inches in length and the stomach and duodenum are exposed. If at this point the stomach is filled with food or fecal material, the rat is not used. If the condition of the stomach is acceptable, a purse string stitch is placed on the fundic portion of the stomach with a suture, taking care not to pierce any blood vessels in the area. A small nick is then made into the stomach in the center of the purse string, and a cannula, consisting of a small vinyl tube with a flange on one end, is put into the stomach, and the purse string stitch is closed tightly around the flange. The test compound is administered intraduodonally (i.d.) immediately after surgery in a volume of 0.5 ml/100 grams rat. Control rats receive the test vehicle, 0.5% aqueous methyl cellulose.
After the surgery and after administration of the test compound, the abdominal wall and skin are closed simultaneously with three or four 10 mm wound clips and a collecting tube is placed on the cannula. Each rat is then placed in a box in which a longitudinal slit has been made to allow the cannula to hang freely and to allow the rat to move about unencumbered. After the rat has been allowed to stabilize for thirty minutes, the collection tube on the cannula is discarded and replaced with a clean tube to receive the gastric juice. Collections are made at one hour.
The sample of gastric contents collected is drained into a centrifuge tube and centrifuged to pack down the sediment. The volume is read and a 1 ml aliquot of the supernatant is put into a beaker containing 10 ml distilled water and is titrated to pH 7 using 0.01 N sodium hydroxide. Results are determined for Volume, Titratable Acid and Total Acid Output, where Volume equals total ml of gastric juice minus sediment; Titratable Acid (meq/1) equals amount of 0.01 N sodium hydroxide needed to titrate the acid to pH 7; and Total Acid Output equals Titratable Acid times Volume. Results are reported as % inhibition of Total Acid Output (TAO) for a dose of 20 mg/kg i.d. of the compound of formula (I) or (II). Particularly useful are compounds having significant inhibition of TAO at a dose of 20 mg/kg.

Assay [1] deals with depressant effects of tetrabenazine (TBZ). Description: tetrabenazine (TBZ) antagonism assay for antidepressant agents. In kind it is in vivo. The conditions noted are these: Mus musculus, ip, 0.5 h, mice, test compound i.p. 30 minutes prior to 32 mg/kg i.p. TBZ. Here is the method: This is the "classical" tetrabenazine antagonism assay described in U.S. Pat. No. 3,787,577. Mice are injected with a test compound 30 minutes prior to the injection of 32 mg/kg i.p. of TBZ, a drug which decreases normal exploratory activity and induces ptosis. After 30 minutes, the mice are tested for two parameters: the presence of normal exploratory activity (EA) and reversal of ptosis (Pt). A control group of mice is given only 32 mg/kg i.p. of TBZ.

Setting [2] is: normal exploratory activity, read-out: TBZ ED50 EA (exploratory activity).
[3] abbreviates: reversal of ptosis, read-out: TBZ ED50 Pt (reversal of ptosis).

Usually ED50 stands for the dose that gives a 50% effect, or the effect in half of the subjects.

Structures can show the parent of a compound that is named as a salt. Where two headings read alike, the source gives them in different places.

Consider `Cn1ccc2c1[C@H](c1ccccc1)CN1CCC[C@@H]21` (relative stereo) [17 (1st), 4,5,7,8,9,9a-alpha-Hexahydro-3-methyl-4-alpha-phenyl-3H-pyrrolo[2,3-g]indolizine], for which the inhibition in vivo at 20 mg/kg with gastric acid secretion came out at 90%.
With `Cn1ccc2c1[C@H](c1ccccc1)CN1CCC[C@H]21` (relative stereo) [17 (2nd), 4,5,7,8,9,9a-beta-Hexahydro-3-methyl-4-alpha-phenyl-3H-pyrrolo[2,3-g]indolizine], the inhibition in vivo at 20 mg/kg with gastric acid secretion turned out to be 88%. For the same compound, the ED50 in assay [1] (setting [2]) is 2.4 mg/kg; in assay [1] (setting [3]), ~0.75 mg/kg.
Regarding `c1ccc([C@@H]2CN3CCC[C@H]3c3ccsc32)cc1` (relative stereo) [19 (1st), 4,5,7,8,9,9a-alpha-Hexahydro-4-alpha-phenylthieno[2,3-g]indolizine], the inhibition in vivo at 20 mg/kg in the assay on gastric acid secretion amounted to 98%.
For `c1ccc([C@@H]2CN3CCC[C@@H]3c3ccsc32)cc1` (relative stereo) [19 (2nd), 4,5,7,8,9,9a-beta-hexahydro-4-alpha-phenylthieno[2,3-g]indolizine], the inhibition in vivo at 20 mg/kg in the assay on gastric acid secretion came out at 98%.
Regarding `c1ccc([C@@H]2CN3CCC[C@H]3c3sccc32)cc1` (relative stereo) [19 (3rd), 4,5,7,8,9,9a-alpha-hexahydro-4-alpha-phenylthieno[3,2-g]indolizine], the inhibition in vivo at 20 mg/kg in the assay on gastric acid secretion came to 88%.
For `c1csc([C@@H]2CN3CCC[C@H]3c3ccsc32)c1` (relative stereo) [20 (1st), 4,5,7,8,9,9a-alpha-Hexahydro-4-alpha-(2-thienyl)thieno[2,3-g]indolizine], the inhibition in vivo at 20 mg/kg with gastric acid secretion was found to be 47%.
In the case of `c1csc([C@@H]2CN3CCC[C@@H]3c3ccsc32)c1` (relative stereo) [20 (2nd), 4,5,7,8,9,9a-beta-hexahydro-4-alpha-(2-thienyl)thieno[2,3-g]indolizine], the inhibition in vivo at 20 mg/kg in the assay on gastric acid secretion turned out to be 41%. The ED50 in assay [1] (setting [2]) is ~24 mg/kg; in assay [1] (setting [3]) it was ~30 mg/kg.
As to `C[C@@]12CCCN1C[C@@H](c1ccccc1)c1sccc12` (relative stereo) [Example 18, 4,5,7,8,9,9a-Hexahydro-9a-alpha-methyl-4-alpha-phenylthieno-[2,3-g]indolizine perchlorate (1:1)], the inhibition in vivo at 20 mg/kg in the assay with gastric acid secretion was 100%.
Still for that read-out and setting: the same measure for `CC12CCCN1CCc1c2ccn1Cc1ccccc1Cl` (stereo not shown) [Example 4, 3-(2-Chlorobenzyl)-4,5,7,8,9,9a-hexahydro-9a-methyl-3H-pyrrolo[2,3-g]indolizine]: 78%; for `CC12CCCN1CCc1[nH]ccc12` (stereo not shown) [Example 5, 4,5,7,8,9,9a-Hexahydro-9a-methyl-3H-pyrrolo[2,3-g]-indolizine E-(2-)butenedioate(1:1)]: 66%.
Regarding `Cn1ccc2c1CCN1CCCC21c1ccccc1` (stereo not shown) [Example 7, 4,5,7,8,9,9a-Hexahydro-3-methyl-9a-phenyl-3H-pyrrolo[2,3-g]indolizine], the inhibition in vivo at 20 mg/kg in the assay on gastric acid secretion was 86%.
Still for that read-out and setting: next, `CC12CCCN1CCc1c2ccn1-c1ccccc1` (stereo not shown) [Example 10, 4,5,7,8,9,9a-Hexahydro-9a-methyl-3-phenyl-3H-pyrrolo[2,3-g]indolizine]: 82%; `Cn1ccc2c1CCN1C(c3ccc(Cl)cc3)CCC21C` (stereo not shown) [Example 12, 7-(4-Chlorophenyl)-4,5,7,8,9,9a-hexahydro-3,9a-dimethyl-3H-pyrrolo[2,3-g]indolizine (E)-2-butenedioate (1:7) hydrate (1:2)]: 37%.
In the case of `Cn1ccc2c1CCN1CCCC21C` (stereo not shown) [Example 13, 3,9a-Dimethyl-4,5,7,8,9,9a-hexahydro-3H-pyrrolo[2,3-]indolizine hydrochloride], in the assay on gastric acid secretion, the inhibition in vivo at 20 mg/kg amounted to 74%.
As for `Cn1ccc2c1C1(C)CCCN1CC2` (stereo not shown) [Example 16, 1,9a-Dimethyl-4,5,7,8,9,9a-hexahydro-1H-pyrrolo[3,2-g]indolizine cyclohexanesulfamate], the inhibition in vivo at 20 mg/kg with gastric acid secretion stood at 86%.
